{"source": "patent US4052515A", "about": "“Method of treating acne with alcohol” (priority 1976, dated 1977)", "key": {"[1]": {"test_system": "Comedo homogenate lypolytic activity", "experiment": "Lypolytic activity of comedo homogenate supernatant, tributyrin turbidity", "type": "biochemical", "conditions": "tributyrin 0.05% substrate", "experimental": "Comedones are collected from the face of subjects with varying degrees of acne and homogenized in 0.05M phosphate buffer, pH 8.1. The mixture is centrifuged and the supernatant is used to measure lypolytic activity.\n(§1) Tributyrin (0.05%) is dispersed in the phosphate buffered solutions by sonication, the alcohol is added, and then an aliquot of the enzyme solution added. The decrease in turbidity is measured spectrophotometrically. Inhibitory activity is determined by comparing initial rates of change."}, "[2]": {"test_system": "Corynebacterium acne lysate supernatant lypolytic activity", "experiment": "Lypolytic activity of C. acne lysate supernatant, tributyrin turbidity", "type": "biochemical", "conditions": "for Percent Inhibition C. Acne: tributyrin 0.05% substrate, initial rates of turbidity change; for Effect on inhibiting the hydrolysis of the tributyrin: summary in words for C. acne and comedo homogenate", "experimental": "Cells of a pure culture of Corynebacterium acne are collected, lysed in 0.05M phosphate buffer and centrifuged. The resultant supernatant is also used to measure lypolytic activity.\nas §1"}, "[3]": {"test_system": "P. Ovale cells and artificial sebum lipid", "experiment": "Irritation by artificial sebum plus P. Ovale cells on guinea pig back", "type": "in vivo, guinea pigs", "conditions": "for Average Irritation Grade: graded after 5 days, scale 0-4, 4 most severe, 0% control 2.0; for Reduction of irritation produced by P. Ovale cells and artificial sebum lipid: summary in words", "experimental": "(§2) A lipid mixture resembling human sebum in composition, but lacking free fatty acids, is applied to the back of guinea pigs along with an inoculum of P. Ovale cells. Alcohol is added to the artificial sebum lipid at concentrations of 1 and 5%. Irritation is graded after 5 days on a scale of 0-4, 4 being most severe."}, "[4]": {"test_system": "Pityrosporum ovale whole cell lipase activity", "experiment": "Whole cell lipase activity, pH stat", "type": "cell-based", "conditions": "for Percent Inhibition Tributyrin / Percent Inhibition Triolein: P. Ovale, alcohol 0.5mMoles; for Percent Inhibition Tributyrin: tributyrin substrate; for Percent Inhibition Triolein: triolein substrate; for Inhibitory activity against different types and strains of skin microorganisms and substrates: summary in words over all strains and both substrates", "experimental": "Cells from three strains of C.Acnes and one strain of Pityrosporum ovale are collected and whole cells used to measure lipase activity. Tributyrin and triolein are used as substrates by dispersing them in a histidine-buffered system by sonication and measuring the acid changes with a pH stat. Alcohols are added to the substrate at a level of 0.5mMoles."}, "[5]": {"experiment": "Topical application of compositions to skin affected by acne", "type": "in vivo", "conditions": "3 to 10 milligrams composition per square centimeter of skin, about 3 weeks", "text": "When treating acne it is preferred that a regimen involving multiple applications of the composition over a period of days or weeks be employed. The amount of the composition applied to the affected areas which constitutes an effective amount will vary depending on the particular person and degree of acne. It is preferred that the composition be applied to the affected areas at a rate of 3 milligrams of composition per square centimeter to 10 milligrams composition per square centimeter of treated tissue.\nThe above compositions show an anti-acne effect when topically applied to skin areas so affected at a rate of between 3 to 10 milligrams composition per square centimeter of skin over a period of about 3 weeks."}, "[6]": {"test_system": "P. Ovale cells and artificial sebum lipid", "experiment": "Parallel experiment: irritation and free fatty acid in artificial sebum after 5 days", "type": "in vivo, guinea pigs", "conditions": "for Irritation Grade: after 5 days, control 3; for % Free Fatty Acids: lipids extracted after 5 days, control 12.5", "experimental": "as §2\nIn a parallel experiment, 1-octanol is mixed in the artificial sebum in varying ratios. After 5 days the lipids are extracted and the quantity of free fatty acid determined."}, "[7]": {"conditions": "Stoler disclosure; cited from earlier work"}, "[8]": {"conditions": "1.0% alcohol in artificial sebum"}, "[9]": {"conditions": "5.0% alcohol in artificial sebum"}}}
{"smiles": "CCCCO", "note": "[1-butanol, reference compound]", "values": [{"measurement": "Percent Inhibition Comedo Homogenate", "setting": "[1]; 0.1% alcohol", "value": 0, "unit": "%"}, {"measurement": "Percent Inhibition C. Acne", "setting": "[2]; 0.1% alcohol", "value": 0, "unit": "%"}, {"measurement": "Effect on inhibiting the hydrolysis of the tributyrin", "setting": "[2]", "value": "no measurable effect"}]}
{"smiles": "CCCCCCCCCCO", "note": "[1-decanol]", "values": [{"measurement": "Average Irritation Grade", "setting": "[3]; [8]", "value": 1.3}, {"measurement": "Average Irritation Grade", "setting": "[3]; [9]", "value": 0.6}, {"measurement": "Reduction of irritation produced by P. Ovale cells and artificial sebum lipid", "setting": "[3]", "value": "able to reduce the irritation"}, {"measurement": "Percent Inhibition Tributyrin", "setting": "[4]", "value": 63, "unit": "%"}, {"measurement": "Percent Inhibition Triolein", "setting": "[4]", "value": 24, "unit": "%"}, {"measurement": "Inhibitory activity against different types and strains of skin microorganisms and substrates", "setting": "[4]", "value": "broad inhibitory activity"}, {"measurement": "Anti-acne effect", "setting": "[5]", "value": "substantially the same results"}]}
{"smiles": "CCCCCCCCCCCCO", "note": "[1-dodecanol]", "values": [{"measurement": "Average Irritation Grade", "setting": "[3]; [8]", "value": 1.3}, {"measurement": "Average Irritation Grade", "setting": "[3]; [9]", "value": 1.0}, {"measurement": "Reduction of irritation produced by P. Ovale cells and artificial sebum lipid", "setting": "[3]", "value": "able to reduce the irritation"}, {"measurement": "Anti-acne effect", "setting": "[5]", "value": "substantially the same results"}]}
{"smiles": "CCCCCCCCO", "note": "[1-octanol]", "values": [{"measurement": "Average Irritation Grade", "setting": "[3]; [8]", "value": 0}, {"measurement": "Average Irritation Grade", "setting": "[3]; [9]", "value": 0.6}, {"measurement": "Reduction of irritation produced by P. Ovale cells and artificial sebum lipid", "setting": "[3]", "value": "able to reduce the irritation"}, {"measurement": "Percent Inhibition Tributyrin", "setting": "[4]", "value": 60, "unit": "%"}, {"measurement": "Percent Inhibition Triolein", "setting": "[4]", "value": 12, "unit": "%"}, {"measurement": "Inhibitory activity against different types and strains of skin microorganisms and substrates", "setting": "[4]", "value": "broad inhibitory activity"}, {"measurement": "Percent Inhibition Comedo Homogenate", "setting": "[1]; 0.03% alcohol", "value": 20, "unit": "%"}, {"measurement": "Percent Inhibition Comedo Homogenate", "setting": "[1]; 0.1% alcohol", "value": 27, "unit": "%"}, {"measurement": "Irritation Grade", "setting": "[6]; alcohol concentration 0.5", "value": 2}, {"measurement": "% Free Fatty Acids", "setting": "[6]; alcohol concentration 0.5", "value": 2.5, "unit": "%"}, {"measurement": "Irritation Grade", "setting": "[6]; alcohol concentration 1.0", "value": 2}, {"measurement": "% Free Fatty Acids", "setting": "[6]; alcohol concentration 1.0", "value": 1.7, "unit": "%"}, {"measurement": "Irritation Grade", "setting": "[6]; alcohol concentration 5.0", "value": 0.5}, {"measurement": "% Free Fatty Acids", "setting": "[6]; alcohol concentration 5.0", "value": 2.5, "unit": "%"}, {"measurement": "Percent Inhibition C. Acne", "setting": "[2]; 0.03% alcohol", "value": 63, "unit": "%"}, {"measurement": "Percent Inhibition C. Acne", "setting": "[2]; 0.1% alcohol", "value": 100, "unit": "%"}, {"measurement": "Effect on inhibiting the hydrolysis of the tributyrin", "setting": "[2]", "value": "positive effect"}]}
{"smiles": "CCCCCCC(C)O", "note": "(centres unmarked) [2-octanol]", "values": [{"measurement": "Anti-acne effect", "setting": "[5]", "value": "substantially the same results"}]}
{"smiles": "CCCCCCC=CCCO", "note": "[3-decen-1-ol]", "values": [{"measurement": "Anti-acne effect", "setting": "[5]", "value": "substantially the same results"}]}
{"smiles": "CCC=CCCO", "note": "[3-hexen-1-ol]", "values": [{"measurement": "Anti-acne effect", "setting": "[5]", "value": "substantially the same results"}]}
{"smiles": "CCCO", "note": "[Propanol]", "values": [{"measurement": "Anti-acne effect", "setting": "[5]", "value": "substantially the same results"}]}
{"smiles": "OCc1ccccc1", "note": "[benzyl alcohol]", "values": [{"measurement": "Anti-acne agent", "setting": "[7]", "value": "an effective anti-acne agent"}, {"measurement": "Inhibition of the formation of free fatty acids", "setting": "[7]", "value": "effective in inhibiting the formation of free fatty acids"}]}
{"smiles": "CC(C)O", "note": "[isopropanol]", "values": [{"measurement": "Anti-acne effect", "setting": "[5]", "value": "substantially the same results"}]}
